Results: article PMC9395450, “Phase 1 study to evaluate the effects of rifampin on pharmacokinetics of pevonedistat, a NEDD8-activating enzyme inhibitor in patients with advanced solid tumors” (Investigational New Drugs, 2022)
Entries after “also recorded” stand apart in the source; their conditions may differ. Where two headings read alike, the source gives them in different places.

Key:
[1] = Safety: treatment-emergent adverse events (NCI CTCAE v4.03), safety population; format: in vivo, human; details: N=20
Protocol: Safety was assessed by incidence and severity of treatment-emergent adverse events (TEAEs), vital signs, physical examinations, electrocardiograms, and clinical laboratory tests, and toxicities were graded according to the National Cancer Institute Common Terminology Criteria for Adverse Events (NCI CTCAE), version 4.03.
(§1) Pevonedistat PK was assessed in all patients who received the protocol-specified pevonedistat and rifampin doses in Part A, and had sufficient concentration–time data to permit reliable estimation of PK parameters (PK-evaluable population). PK data were summarized using descriptive statistics. For assessment of the effect of rifampin on pevonedistat PK, the ratios of geometric mean Cmax, AUClast and AUCinf of pevonedistat in the presence of rifampin on Day 10 versus in the absence of rifampin on Day 1 and associated 90% CI were calculated based on analysis of variance. Estimates for each PK parameter were obtained using a mixed effects model of log(PK parameter) with fixed terms for the rifampin effect and random terms for patient. Safety was assessed in all patients who received at least one dose of pevonedistat, and TEAEs were coded according to the Medical Dictionary for Regulatory Activities (MedDRA), version 20.0.

[2] = set-up: method as in PMID 31355467; details: ref [15], cited from earlier work
[3] = set-up: method as in PMID 30845347; details: strong CYP3A/P-glycoprotein inhibitor itraconazole; ref [16]; cited from earlier work
[4] = ref [10]–[13], cited from earlier work
[5] = set-up: method as in PMID 33089874; details: following intravenous administration; ref [14]; cited from earlier work
[6] = Phase 1 drug-drug interaction study: single-dose pevonedistat plasma PK in the absence or presence of rifampin; format: in vivo, human; details: for AUC(0-t) / AUC(0-inf) / Cmax / clearance / Vd / half-life: human, plasma; for clearance: 50 mg/m2, plasma clearance, read-out: CL geometric mean (CV) (converted); for Vd: read-out: Vss geometric mean (CV); for half-life: read-out: t1/2z mean (SD) (converted)
Protocol: This was an open-label, multi-center study in adult patients with advanced solid tumors (NCT03486314). Eligible patients received a single 50 mg/m^2 pevonedistat dose via a 1-h infusion on Days 1 and 10, and daily oral dosing of rifampin 600 mg Days 3–11. Serial blood samples for the measurement of pevonedistat plasma concentrations were collected over 48 h following pevonedistat dosing. Pevonedistat PK parameters and ratios of geometric means for maximal plasma concentration (Cmax) and area under the plasma concentration versus time curve from time 0 to infinity (AUC0–inf) were calculated in the presence of rifampin (Day 10) and in reference to the absence of rifampin (Day 1), with associated 90% confidence intervals (CI) estimated using analysis of variance.
Serial blood samples for measuring pevonedistat concentrations were collected at intervals from 0 (predose) to 48 h after the single doses of pevonedistat on Day 1 and Day 10. Plasma samples were analyzed for pevonedistat concentrations using a previously reported validated liquid chromatography/mass spectrometry (LC–MS/MS) assay.
Pevonedistat PK parameters were calculated by noncompartmental analysis of the pevonedistat plasma concentration–time data using Phoenix WinNonlin version 8.1 (Certara, Princeton, NJ). The following single-dose PK parameters were derived: Cmax, AUC0-inf, AUC from time 0 to the last quantifiable concentration (AUC0–last), terminal disposition phase half-life (t1/2), clearance (CL), and volume of distribution at steady state (Vss).
as §1

[7] = most common TEAEs (≥ 15% of patients)
[8] = single dose 50 mg/m^2 ± rifampin
[9] = single dose 50 mg/m^2 ± rifampin, listed as Pevonedistat
[10] = iv, 50 mg/m2, single 50 mg/m^2 IV, in the absence of rifampin (Day 1), N=20
[11] = iv, 50 mg/m2, single 50 mg/m^2 IV, in the presence of rifampin (Day 10), N=17
[12] = presence of rifampin (Day 10) vs absence (Day 1)

Structure (SMILES): NS(=O)(=O)OC[C@@H]1C[C@@H](n2ccc3c(N[C@H]4CCc5ccccc54)ncnc32)C[C@@H]1O [pevonedistat, Pevonedistat]
- TEAE of hypersensitivity leading to interruption of study drug or permanent withdrawal, patients [1]: Two
- TEAE decreased appetite, patients [1, 7]: 4 [20%] n [%]
- TEAE diarrhea, patients [1, 7]: 3 [15%] n [%]
- TEAE fatigue, patients [1, 7]: 3 [15%] n [%]
- Drug-related TEAEs, Events [1, 8]: 14
- Grade ≥ 3 TEAEs, Events [1, 8]: 17
- Grade ≥ 3 drug related TEAEs, Events [1, 8]: 3
- Grade ≥ 3 drug related TEAEs, Patients (%) [1, 8]: 3 (15%) n (%)
- On-study deaths, Events [1, 8]: 1
- Serious TEAEs leading to study drug discontinuation, Events [1, 8]: 1
- Serious TEAEs leading to study drug discontinuation, Patients (%) [1, 8]: 1 (5.0) n (%)
- Serious TEAEs, Events [1, 8]: 4
- Serious TEAEs, Patients (%) [1, 8]: 3 (15%) n (%)
- Serious TEAEs, drug related, Events [1, 8]: 1
- Serious TEAEs, drug related, Patients (%) [1, 8]: 1 (5.0) n (%)
- TEAEs leading to study drug discontinuation, Events [1, 8]: 1
- TEAEs leading to study drug discontinuation, Patients (%) [1, 8]: 1 (5.0) n (%)
- TEAEs leading to study drug dose delayed, Events [1, 8]: 0
- TEAEs leading to study drug dose delayed, Patients (%) [1, 8]: 0 n (%)
- TEAEs leading to study drug dose interruption, Events [1, 8]: 0
- TEAEs leading to study drug dose interruption, Patients (%) [1, 8]: 0 n (%)
- TEAEs leading to study drug dose reduction, Events [1, 8]: 0
- TEAEs leading to study drug dose reduction, Patients (%) [1, 8]: 0 n (%)
- TEAEs, Events [1, 8]: 82
- TEAEs, Patients (%) [1, 8]: 16 (80%) n (%)
- Drug-related TEAEs, Patients (%) [1, 9]: 9 (45.0) n (%)
- Grade ≥ 3 TEAEs, Patients (%) [1, 9]: 7 (35.0) n (%)
- Grade ≥ 3 drug related TEAEs, Patients (%) [1, 9]: 3 (15.0) n (%)
- On-study deaths, Patients (%) [1, 9]: 1 (5.0) n (%)
- Serious TEAEs, Patients (%) [1, 9]: 3 (15.0) n (%)
- TEAEs, Patients (%) [1, 9]: 16 (80.0) n (%)
- PK dose linearity ([2]; dose range 25–278 mg/m^2): linear
- impact of age, sex, tumor type, mild or moderate renal impairment (creatinine clearance ≥ 30 mL/min) on PK [2]: no impact
- inter-patient variability in pevonedistat clearance [2]: approximately 30%
- effect of itraconazole on pevonedistat systemic exposure / PK [3]: no clinically relevant effects; also recorded: did not result in clinically meaningful increase
- recommended dose for clinical investigation as a single agent ([4]; Days 1, 3 and 5 in 21-day cycles): 50 mg/m^2
- maximum tolerated dose (MTD) ([4]; in combination with azacitidine): 20 mg/m^2
- maximum tolerated dose (MTD) ([4]; in combination with carboplatin plus paclitaxel): 20 mg/m^2
- maximum tolerated dose (MTD) ([4]; in combination with docetaxel): 25 mg/m^2
- whole-blood-to-plasma ratio [5]: 40
- geometric mean AUClast in the presence of rifampin as % of that in the absence ([6]; Day 10 vs Day 1, 90% CI 68.4%–90.1%): 78.5%
- geometric mean AUC∞ (AUC0–inf) in the presence of rifampin as % of that in the absence ([6]; Day 10 vs Day 1, 90% CI 69.2%–90.2%): 79%
- geometric mean Cmax in the presence of rifampin as % of that in the absence ([6]; Day 10 vs Day 1, 90% CI 79.2%–117%): 96.2%
- decrease in pevonedistat systemic exposure with rifampin ([6]; coadministration with rifampin): approximately 20%
- AUC(0-t) ([6]; intravenous, 50 mg/m^2, mixed-effects model, in the absence of rifampin, N=20, read-out: AUClast LS mean): 2990 ng·h/mL
- AUC(0-inf) ([6]; intravenous, 50 mg/m^2, mixed-effects model, in the absence of rifampin, N=20, read-out: AUC∞ LS mean): 3030 ng·h/mL
- Cmax ([6]; intravenous, 50 mg/m^2, mixed-effects model, in the absence of rifampin, N=20, read-out: Cmax LS mean): 602 ng/mL
- AUC(0-t) ([6]; intravenous, mixed-effects model, in the presence of rifampin, N=17, read-out: AUClast LS mean): 2340 ng·h/mL
- AUC(0-inf) ([6]; intravenous, mixed-effects model, in the presence of rifampin, N=17, read-out: AUC∞ LS mean): 2390 ng·h/mL
- Cmax ([6]; intravenous, mixed-effects model, in the presence of rifampin, N=17, read-out: Cmax LS mean): 579 ng/mL
- clearance ([6]; iv, single 50 mg/m^2 IV, in the absence of rifampin (Day 1), N=20): 550 mL/min
- clearance ([6]; iv, single 50 mg/m^2 IV, in the presence of rifampin (Day 10), N=17): 692 mL/min
- AUC(0-t) ([6]; iv, 50 mg/m2, single 50 mg/m^2 IV, in the absence of rifampin (Day 1), N=20, read-out: AUClast geometric mean (CV)): 2990 ng·h/mL
- AUC(0-inf) ([6]; iv, 50 mg/m2, single 50 mg/m^2 IV, in the absence of rifampin (Day 1), N=20, read-out: AUC∞ geometric mean (CV)): 3030 ng·h/mL
- Vd [6, 10]: 278 L
- half-life [6, 10]: ~7 h
- AUC(0-t) ([6]; iv, 50 mg/m2, single 50 mg/m^2 IV, in the presence of rifampin (Day 10), N=17, read-out: AUClast geometric mean (CV)): 2330 ng·h/mL
- AUC(0-inf) ([6]; iv, 50 mg/m2, single 50 mg/m^2 IV, in the presence of rifampin (Day 10), N=17, read-out: AUC∞ geometric mean (CV)): 2370 ng·h/mL
- Vd [6, 11]: 265 L
- half-life [6, 11]: 5.7 h
- Cmax ([6]; single 50 mg/m^2 1-h IV infusion, in the absence of rifampin (Day 1), N=20, read-out: Cmax geometric mean (CV)): 602 ng/mL
- Cmax ([6]; single 50 mg/m^2 1-h IV infusion, in the presence of rifampin 600 mg daily (Day 10), N=17, read-out: Cmax geometric mean (CV)): 564 ng/mL
- CL geometric mean (CV) ([6]; plasma clearance, single 50 mg/m^2 IV, in the absence of rifampin (Day 1), N=20): 33.1 (31.2%) L/h
- AUClast LS mean ratio (90% CI) [6, 12]: 0.785 (0.684–0.901)
- AUC∞ LS mean ratio (90% CI) [6, 12]: 0.790 (0.692–0.902)
- Cmax LS mean ratio (90% CI) [6, 12]: 0.962 (0.792–1.17)
- t1/2z mean (SD) ([6]; single 50 mg/m^2 IV, in the absence of rifampin (Day 1), N=20): 7.4 (1.4) h
